# Laboratory results taken from US9630941B2 (priority 2008, dated 2017).
# “Also recorded” adds a separate entry of the source.
# Assays:
# [1] = Plasma THC from HME buccal patches in swine model; assay type: in vivo; conditions: swine
# Experimental: THC was used as control formulation. Plasma was sampled from each animal at predetermined times and the amount of THC in the plasma was determined.
# FIG. 20: Plasma THC concentrations as a function of time from THC-Val-HS loaded HME buccal patches. Data represents the mean value from 4 pigs. The animals were maintained under anesthesia for the first 4 hours and were then allowed to come out of anesthesia and given access to food and water.
# A dose dependent plasma concentration time profile was then evaluated.
# Plasma THC concentrations as a function of time and dose from THC-Val-HS loaded HME patches. Data represents the mean value. The animals for maintained under anesthesia for the first 4 hours and were then allowed to come out of anesthesia and given access to food and water.
# [2] = Aqueous solubility, pH dependent; assay type: physicochemical
# [3] = Chemical stability pH dependent at 25° C.; assay type: physicochemical
# Experimental: B. Chemical Stability pH Dependent at 25° C.
# [4] = In vivo ocular bioavailability of THC after topical formulations; conditions: for concentration at 1 h: male, New Zealand albino, rabbit, topical
# [5] = Thermal stability, 120° C. for 10 min; assay type: physicochemical; conditions: for CBN content of the sample after heating / Drug remaining / Drug remaining (%) / THC content of the sample after heating: 120° C. for 10 min; for Drug remaining (%): % of initial; for CBN content of the sample, initial / Initial, μg (drug itself) / THC content of the sample, initial: before heating
# Experimental: C. Thermal Stability—120° C. for 10 min.
# [6] = system: intraocular pressure (IOP) induced model of glaucoma; test: Rabbit glaucoma model, IOP lowering after topical instillation; conditions: THC in Tocrisolve, 50 μL topical
# [7] = Bioreversion: plasma stability, rabbit plasma; assay type: in vitro ADME
# [8] = Bioreversion: plasma stability, porcine plasma; assay type: in vitro ADME
# [9] = Control (IPBS) stability for the buccal homogenate study; assay type: physicochemical
# Experimental: (§1) b. Porcine Buccal Tissue Homogenate Stability
# (§2) Protein Concentration 2 mg/ml
# [10] = Porcine buccal tissue homogenate stability; assay type: in vitro ADME; conditions: protein concentration 2 mg/ml
# Experimental: as §1, §2
structure (smiles),measurement,setting,value
"CCCCCc1cc(O)c2c(c1)OC(C)(C)C1CCC(C)=CC21 (stereo not shown) [THC, Δ^9-Tetrahydrocannabinol, reference compound]",Transbuccal systemic bioavailability of THC,[1]; THC loaded HME patch,no bioavailability; also recorded: extremely poor
same,THC levels in plasma from transmucosal HME patches,[1]; buccal patch,No THC levels were detected
same,solubility,"[2]; aqueous medium at pH 2, pH 2, aqueous buffer",0.95 µg/mL
same,solubility,"[2]; aqueous medium at pH 3, pH 3, aqueous buffer",2.23 µg/mL
same,solubility,"[2]; aqueous medium at pH 4, pH 4, aqueous buffer",1.27 µg/mL
same,solubility,"[2]; aqueous medium at pH 5, pH 5, aqueous buffer",2.23 µg/mL
same,solubility,"[2]; aqueous medium at pH 6, pH 6, aqueous buffer",2.23 µg/mL
same,solubility,"[2]; aqueous medium at pH 7, pH 7, aqueous buffer",2.23 µg/mL
same,solubility,"[2]; aqueous medium at pH 8, pH 8, aqueous buffer",2.23 µg/mL
same,solubility,"[2]; aqueous medium, pH 3, aqueous buffer",2.23 µM
same,solubility,"[2]; aqueous medium, pH 4, aqueous buffer",1.27 µM
same,solubility,"[2]; aqueous medium, pH 5, aqueous buffer",2.23 µM
same,solubility,"[2]; aqueous medium, pH 6, aqueous buffer",2.23 µM
same,solubility,"[2]; aqueous medium, pH 7, aqueous buffer",2.23 µM
same,solubility,"[2]; aqueous medium, pH 8, aqueous buffer",2.23 µM
same,solubility,"[2]; pH 2, aqueous buffer",0.95 µM
same,solubility,[2]; water,2.23 µM
same,solubility,"[2]; water, H20",2.23 µg/mL
same,First order rate constant,"[3]; Buffer pH 5.0, 25° C.",0.017 h⁻¹
same,First order rate constant,"[3]; Buffer pH 7.0, 25° C.",0.0098 h⁻¹
same,"THC concentrations in aqueous humor, iris-ciliary bodies / anterior segment ocular tissues",[4]; 1 hour post topical application,not observed
same,concentration at 1 h,"[4]; cornea, 50 μL of 0.1% w/v THC",1380 ng/g
same,concentration at 1 h,"[4]; cornea, 50 μL of 0.37% w/v THC",6010 ng/g
same,concentration at 1 h,"[4]; sclera, 50 μL of 0.1% w/v THC",416 ng/g
same,concentration at 1 h,"[4]; sclera, 50 μL of 0.37% w/v THC",684 ng/g
same,Drug loading (%),[5],85.38 ± 7.25%
same,CBN content of the sample after heating,[5],53.85 ± 1.60 µg
same,Drug remaining,[5],1214.10 ± 39.12 µg
same,Drug remaining (%),[5],(95.05 ± 5.05) %
same,"CBN content of the sample, initial",[5],56.76 ± 4.86 µg
same,"Initial, μg (drug itself)",[5],1280.70 ± 108.77 µg
same,"maximum observed effect, drop in IOP from baseline",[6],40%
same,time for IOP to return to 90% of baseline,[6],≤ 2 h
same,time to maximum effect post topical application,[6],≤ 30 min
"CCCCCc1cc(OC(=O)C(N)C(C)C)c2c(c1)OC(C)(C)C1CCC(C)=CC21 (stereo not shown) [THC-Valinate (6), Δ^9-THC-valinate]",K,[7],61.94 ± 6.01 ×10^−2 min^−1
same,T1/2,[7],1.124 ± 0.109 min
same,K,[8],91.16 ± 10.91 ×10^−2 min^−1
same,T1/2,[8],0.766 ± 0.092 min
same,Aqueous Solubility,[2]; H20,0.05 µg/mL
same,Aqueous Solubility,[2]; pH 1.2,32.16 ± 0.27 µg/mL
same,Aqueous Solubility,"[2]; pH 1.2, listed as THC-Valine",78.23 ± 0.66 µM
same,Aqueous Solubility,[2]; pH 2,53.66 ± 10.30 µg/mL
same,Aqueous Solubility,"[2]; pH 2, listed as THC-Valine",147.35 ± 24.90 µM
same,Aqueous Solubility,[2]; pH 3,28.76 ± 0.14 µg/mL
same,Aqueous Solubility,"[2]; pH 3, listed as THC-Valine",69.78 ± 0.33 µM
same,Aqueous Solubility,[2]; pH 4,10.34 ± 0.53 µg/mL
same,Aqueous Solubility,"[2]; pH 4, listed as THC-Valine",24.10 ± 1.28 µM
same,Aqueous Solubility,[2]; pH 5,1.27 ± 0.25 µg/mL
same,Aqueous Solubility,"[2]; pH 5, listed as THC-Valine",3.51 ± 0.62 µM
same,Aqueous Solubility,[2]; pH 6,0.07 ± 0.00 µg/mL
same,Aqueous Solubility,"[2]; pH 6, listed as THC-Valine",0.17 ± 0.00 µM
same,K,[9],3.66 ± 0.68 ×10^−3 min^−1
same,K,[10],16 ± 0.19 ×10^−3 min^−1
same,T1/2,[10],43.30 ± 0.51 min
same,First order rate constant,"[3]; Buffer pH 5.0, 25° C.",4.06 ± 0.01 ×10^−3 h^−1
same,First order rate constant,"[3]; Buffer pH 7.0, 25° C.",47.13 ± 1.16 ×10^−3 h^−1
same,First order rate constant,"[3]; Buffer pH 9.0, 25° C.",67.64 ± 7.67 ×10^−3 h^−1
same,First order rate constant,"[3]; Water, 25° C.",23.70 ± 0.77 ×10^−3 h^−1
same,Drug loading (%),[5],104.67 ± 2.22%
same,CBN content of the sample after heating,[5],8.79 ± 2.43 µg
same,Drug remaining,[5],1440.57 ± 46.34 µg
same,THC content of the sample after heating,[5],74.35 ± 5.26 µg
same,Drug remaining (%),[5],(91.80 ± 4.90) %
same,"CBN content of the sample, initial",[5],8.27 ± 1.68 µg
same,"Initial, μg (drug itself)",[5],1570.09 ± 33.27 µg
same,"THC content of the sample, initial",[5],61.91 ± 9.49 µg
"CCCCCc1cc(OC(=O)[C@@H](N)Cc2ccc(O)cc2)c2c(c1)OC(C)(C)[C@@H]1CCC(C)=C[C@@H]21 [THC-Tyrosinate (11), Δ^9-THC-tyrosinate]",K,[8],93.53 ± 8.79 ×10^−2 min^−1
same,T1/2,[8],0.74 ± 0.07 min
same,Aqueous Solubility,[2]; pH 1.2,41.92 ± 2.14 µg/mL
same,Aqueous Solubility,"[2]; pH 1.2, listed as THC-Tyrosine",87.76 ± 4.48 µM
same,Aqueous Solubility,[2]; pH 2,15.76 ± 0.66 µg/mL
same,Aqueous Solubility,"[2]; pH 2, listed as THC-Tyrosine",33.00 ± 1.38 µM
same,Aqueous Solubility,[2]; pH 3,5.28 ± 1.78 µg/mL
same,Aqueous Solubility,"[2]; pH 3, listed as THC-Tyrosine",11.06 ± 3.73 µM
same,Aqueous Solubility,[2]; pH 4,0.73 ± 0.03 µg/mL
same,Aqueous Solubility,"[2]; pH 4, listed as THC-Tyrosine",1.52 ± 0.06 µM
same,K,[9],1.11 ± 0.04 ×10^−3 min^−1
same,K,[10],21.52 ± 0.55 ×10^−3 min^−1
same,T1/2,[10],32.21 ± 0.81 min
same,First order rate constant,"[3]; Buffer pH 5.0, 25° C.",6.32 ± 3.14 ×10^−3 h^−1
same,First order rate constant,"[3]; Buffer pH 7.0, 25° C.",25.02 ± 0.88 ×10^−3 h^−1
same,First order rate constant,"[3]; Buffer pH 9.0, 25° C.",53.88 ± 11.36 ×10^−3 h^−1
same,First order rate constant,"[3]; Water, 25° C.",9.40 ± 0.88 ×10^−3 h^−1
same,Drug loading (%),[5],81.51 ± 4.28%
same,CBN content of the sample after heating,[5],24.42 ± 0.21 µg
same,Drug remaining,[5],1138.93 ± 60.67 µg
same,THC content of the sample after heating,[5],123.75 ± 2.69 µg
same,Drug remaining (%),[5],(93.15 ± 0.06) %
same,"CBN content of the sample, initial",[5],35.68 ± 1.16 µg
same,"Initial, μg (drug itself)",[5],1222.61 ± 64.25 µg
same,"THC content of the sample, initial",[5],92.95 ± 3.08 µg
